Read-outs that look alike come from different tables or passages of the source. Blank lines part the entries; values can stand above or below the compound they belong to.
Assays:
[1] = molecular target: T1, Gly107Ser mutant of FNT (Plasmodium falciparum, UniProt O77389, G107S); assay: yeast test system, 14C-L-lactate uptake, FNT Gly107Ser mutant expressed in Saccharomyces cerevisiae; format: cell-based
T1 construct: expressed in transfected cells; host or cells: Saccharomyces cerevisiae W303-1A jen1Δ ady2Δ, plasmid pDR196 (PMA promoter)
Text: (§1) The FNT of the wild-type plasmodium (available under accession number PF3D7_0316600 in the data bank PlasmoDB) and of the resistant plasmodia (position of the mutation in the open reading frame: guanine 319 to adenine) were expressed in the yeast Saccharomyces cerevisiae W303-1A jen1Δ ady2Δ from plasmid pDR196 (PMA promoter). In the yeast, the endogenous genes for the monocarboxylate transporter Jenlp (sequence accession No. CAA82062 NCBI) and Ady2p (sequence accession No. KZV 12856) were deleted (obtained from M. Casal, Universidade do Minho, Portugal).
(§2) This yeast was grown in SD medium with addition of adenine, histidine, leucine, tryptophan and 2% (wt/v) glucose at 30° C. up to an OD600 of 0.8 to 1.0, harvested by centrifugation and washed once with water and centrifuged down again, and suspended in 50 mM HEPES/TRIS (pH 6.8) and adjusted to an OD600 of 50±10% and stored on ice. For contacting with one of the compounds a compound of one step of a dilution series in DMSO was provided in a reaction vessel and onto this 80 μL of the yeast suspension were pipetted. After an incubation on ice for 15 to 20 min 20 μL 5 mM Na-L-lacate plus 0.04 μCi radioactively labelled L-(1-^14C) lactate was added. The lactate concentration obtained was 1 mM. After an incubation of 30 s the uptake of lacatate was stopped by a rapid dilution by means of adding of 1 ml ice cold water. From the yeast suspension diluted this way the yeast cells were brought onto a filter membrane by vacuum filtration, washed with 7 ml cold water and transferred with the filter membrane into 3 ml scintillation cocktail. After 24 h of incubation at 18° C. in the scintillation cocktail, in which the cells were lysed, the amount of radioactively labelled lactate was measured by means of a scintillation counter. The total amount of lactate which was taken up by the yeast was calculated from the measured amount of radioactively labelled lactate. As a positive control the yeast was treated equally in parallel testing with DMSO without one of the compounds and was regarded as 100% FNT activity, respectively 0% inhibition. In testings with the compound a lower amount of lactate taken up was found in comparison to the parallel positive control. As a negative control yeast was treated in parallel in which the endogenous genes for the monocarboxylate transporters Jenlp and Ady2p were deleted, but the FNT from plasmodium was not expressed. This negative control was regarded as 0% FNT activity, respectively 100% inhibition.
(§3) As a representative for a Formiate-Nitrit-Transporter protein (FNT) from protozoa, the FNT of Plasmodium falciparum as wild-type and as […] mutant was used, which were each expressed in yeast and incubated with dilutions of the compounds to be tested as described in Example 1.

[2] = molecular target: T2, FNT wild-type (Plasmodium falciparum, UniProt O77389); assay: yeast test system, 14C-L-lactate uptake, FNT wild-type expressed in Saccharomyces cerevisiae; format: cell-based
T2 construct: expressed in transfected cells; host or cells: Saccharomyces cerevisiae W303-1A jen1Δ ady2Δ, plasmid pDR196 (PMA promoter)
Text: as §1
as §2, with “After an incubation on ice for 15 to 20 min 20 μL 5 mM Na-L-lacate plus 0.04 μCi radioactively labelled L-(1-^14C) lactate was added.” left out
as §3

[3] = system: Plasmodium falciparum; assay: growth of Plasmodium falciparum culture (parasitaemia by FACS); format: cell-based
Method: The effect of the following compounds on the growth of Plasmodium falciparum was tested using cultivated plasmodia:
The plasmodium culture was maintained in 5% 0+ erythrocytes in RPMI 1640 medium with 0.5% Albumax at 37° C. […] A change of medium was made after 24 h and the compounds were added freshly.

[4] = system: resistant plasmodia (FNT mutation Gly107Ser); assay: microbe, parasite or virus in culture; format: cell-based, Plasmodium falciparum; details: for IC50: Plasmodium falciparum, read-out: plasmodium culture IC50 against Gly107Ser mutant
[5] = yeast test system, 15 to 20 min preincubation, 1 mM lactate, pH 6.8, read-out: IC50 against FNT wild-type
[6] = Plasmodium falciparum; read-out: plasmodium culture IC50 against wild-type
[7] = Plasmodium falciparum; 48 h after addition, parasitaemia by FACS; read-out: inhibitory effect IC50 on the growth of the plasmodium culture

T1 sequence (O77389 whole entry G107S): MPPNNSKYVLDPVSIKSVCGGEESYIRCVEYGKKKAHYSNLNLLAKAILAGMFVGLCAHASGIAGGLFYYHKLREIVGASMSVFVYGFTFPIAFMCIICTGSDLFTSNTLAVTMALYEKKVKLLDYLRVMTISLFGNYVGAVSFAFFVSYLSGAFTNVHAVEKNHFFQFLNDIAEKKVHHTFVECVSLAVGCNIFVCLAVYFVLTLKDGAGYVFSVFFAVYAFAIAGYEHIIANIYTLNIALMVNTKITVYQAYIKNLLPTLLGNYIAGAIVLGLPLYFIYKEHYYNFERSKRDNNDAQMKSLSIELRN
T2 sequence (O77389 whole entry): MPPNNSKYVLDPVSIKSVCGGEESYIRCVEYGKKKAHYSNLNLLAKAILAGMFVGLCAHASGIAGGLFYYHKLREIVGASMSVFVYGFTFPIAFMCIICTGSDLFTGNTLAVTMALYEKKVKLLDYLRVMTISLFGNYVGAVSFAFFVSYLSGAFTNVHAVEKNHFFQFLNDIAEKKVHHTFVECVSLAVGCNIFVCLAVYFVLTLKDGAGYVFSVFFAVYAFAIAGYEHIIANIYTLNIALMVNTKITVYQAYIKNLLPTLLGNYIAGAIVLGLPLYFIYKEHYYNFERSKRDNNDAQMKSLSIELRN

Structure (SMILES): COc1ccc(CCC(=O)/C=C(\O)C(F)(F)C(F)(F)F)cc1 [BH-324.2]
- IC50 [1]: 6.3 µM
- inhibition of the Gly107Ser mutant (in words) [1]: inhibit the Gly107Ser mutant significantly
- IC50 [2]: 160 nM

Structure (SMILES): O=C(/C=C(\O)C(F)(F)C(F)(F)F)c1ccc(OCc2ccccc2)cc1O [BH-388]
- IC50 [2, 5]: 890 nM

Structure (SMILES): Cn1ccc(C(=O)/C=C(\O)C(F)(F)C(F)(F)F)c1 [BH-269]
- IC50 [1]: 15 µM

Structure (SMILES): O=C(/C=C(\O)C(F)(F)C(F)(F)F)c1ccc(Cl)cc1O [BH-317]
- inhibition of the plasmodium culture (in words) [3]: effective inhibition
- IC50 [3, 6]: 370 nM
- inhibition of the FNT in the yeast test system (in words) [2]: effective inhibition
- IC50 [2, 5]: 120 nM

Structure (SMILES): CCOc1ccc(C(=O)/C=C(\O)C(F)(F)C(F)(F)F)c(O)c1 [BH-326]
- inhibition of the plasmodium culture (in words) [3]: effective inhibition
- IC50 [3, 6]: 50 nM
- inhibition of the FNT in the yeast test system (in words) [2]: effective inhibition
- IC50 [2, 5]: 240 nM

Structure (SMILES): COc1ccc2c(c1)OC(O)(C(F)(F)C(F)(F)F)CC2=O (stereo not shown) [MMV007839, reference compound]
- IC50 [3, 7]: 140 nM
- IC50 ([2]; preincubation 20 min, read-out: IC50 of lactate transport): 170 nM
- IC50 ([2]; preincubation 24 h prior to addition of lactate, read-out: IC50 of lactate transport): 15 nM
- reversibility of FNT inhibition by washing of the cells ([2]; washing with 50 mM HEPES-Tris, pH 6.8): could not be reduced by washing

Structure (SMILES): O=C(/C=C(\O)C(F)(F)C(F)(F)F)c1ccc(Cl)cc1 [BH-301]
- IC50 [1]: 5.8 µM
- inhibition of the Gly107Ser mutant (in words) [1]: inhibit the Gly107Ser mutant significantly
- IC50 [2]: 120 nM

Structure (SMILES): O=C(/C=C(\O)C(F)(F)C(F)(F)F)c1cc2ccccc2o1 [BH-306]
- IC50 [1]: 15 µM
- IC50 [2, 5]: 180 nM

Structure (SMILES): CC(=O)C=C(O)C(F)(F)C(F)(F)F [BH-204]
- IC50 ([1]; yeast test system, 15 to 20 min preincubation, 1 mM lactate, pH 6.8, read-out: IC50 against Gly107Ser mutant of FNT): 8.1 µM
- IC50 [2, 5]: 1900 nM

Structure (SMILES): CC(C)(O)CC(=O)/C=C(\O)C(F)(F)C(F)(F)F [BH-262]
- IC50 [3, 6]: 10000 nM
- IC50 [4]: 70 µM

- IC50 [3, 7]: 1700 nM
Structure (SMILES): O=C1CC(O)(C(F)(F)C(F)(F)F)Oc2ccccc21 (stereo not shown) [MMV000972, reference compound]

Structure (SMILES): CC(C)Oc1ccc(C(=O)/C=C(\O)C(F)(F)C(F)(F)F)c(O)c1 [BH-340]
- inhibition of the plasmodium culture (in words) [3]: effective inhibition
- IC50 [3, 6]: 100 nM
- inhibition of the FNT in the yeast test system (in words) [2]: effective inhibition
- IC50 [2, 5]: 400 nM

Structure (SMILES): COc1ccc(C(=O)/C=C(\O)C(F)(F)C(F)(F)F)cc1 [BH-296]
- IC50 [3, 6]: 3400 nM
- inhibition of the Gly107Ser mutant (in words) [1]: inhibit the Gly107Ser mutant significantly
- IC50 [4]: 8.9 µM
- effect against the resistant parasites (in words) ([4]; pharmaceutically acceptable concentration range): effective against the resistant parasites
- IC50 [2, 5]: 140 nM

Structure (SMILES): COc1ccc(C(=O)/C=C(\O)C(F)(F)C(F)(F)C(F)(F)F)c(O)c1 [BH-362]
- IC50 ([3]; Plasmodium falciparum, read-out: plasmodium culture IC50 against wild-type): 570 nM
- IC50 [2, 5]: 250 nM

Structure (SMILES): O=C(/C=C(\O)C(F)(F)C(F)(F)F)/C=C/c1ccccc1 [BH-292]
- IC50 [1]: 25 µM
- IC50 [2, 5]: 260 nM
